Data on one substance can be found in patent US11958796B2, “Hydrophilic and particularly water soluble DBOV-derivatives” (Max-Planck-Gesellschaft zur Förderung der Wissenschaften …, priority 2018, dated 2024).

Series [1] deals with living cells. Briefly: uptake into living cells, spinning disk confocal microscopy. Type of series: cell-based. As for the experimental part:
(§1) More specifically, the cytotoxicity of DBOV-Mes-OTEG was tested in living cells. […] Moreover, the uptake of DBOV-Mes-OTEG into living cells was investigated by imaging 21 hours with low laser intensity at the spinning disk confocal microscopy (Visitron).

Series [2] deals with fixed cell samples. Kind of series: blinking-mode imaging of fixed samples in PBS. The following applies: fixed samples in PBS without special imaging buffer; continuous exposure, laser intensity 10 kW/cm^2 for 90 min. The source says: After the aforementioned live cell imaging, the samples were fixed and imaged in phosphate-buffered saline (PBS) without special imaging buffer.

Series [3] concerns living cells. Kind of series: cytotoxicity test in living cells. Type of series: cell-based. The following applies: concentration of 1 μM. As for the experimental part:
as §1

A short description of series [4]: solubility in water. Type of series: physicochemical. The following applies: room temperature. As for the experimental part: In accordance with the present invention, the solubility of the compound having the general formula (1) in water at 23° C. is measured as follows: 1.0 mg sample is weighed into an Erlenmeyer flask and is then mixed homogeneously with 4 ml of water with a spatula at 23° C. The remaining substance on the spatula is stripped off with a magnetic stirrer bar, which is then added to the Erlenmeyer flask. While stirring with a magnetic stirrer, water is added dropwise with a burette until the solution in the Erlenmeyer flask becomes clear at 23° C. After that, the solubility of compound in water is calculated by calculating the ratio of weighed compound divided by the volume of added water and then by recalculating this ratio to 1 l of water.

For “3,4,5-tris(2,5,8,11-tetraoxatridecan-13-yloxy)phenyl substituted 6,14-dimesityldibenzo[hi,st]ovalene [DBOV-Mes-OTEG]”, in series [1] (after 21 hours incubation), the intracellular location entry was “in the nucleus and nuclear membrane”. In addition, the “uptake / intracellular location” value in series [1] (beginning of the incubation) is “taken into the cytoplasm”. Besides, the “stability of blinking signals (photostability)” value in series [2] is reported as “no significant decrease of blinking signals”. The cytotoxicity entry in series [3] is recorded as “does not show any significant toxicity”. The solubility in water in series [4] worked out at 100 µg/mL.
